Measured values from patent US6090786A, “Serine proteases, their activity and their synthetic inhibitors” (priority 1994, dated 2000).
Counter-ions that a name gives are not always drawn. Like-named read-outs stand apart in the source and are kept apart here. No end group written: not given here.

How the values were obtained:
DPPIV [1] = biological target: T1, DPPIV (Homo sapiens, UniProt P27487); test: biochemical; type: biochemical
T1 construct: from tissue; host or cells: prostasomes from human seminal plasma, purified on immobilized adenosine deaminase
Description: (§1) All enzymatic reactions were carried out in 50 mM Tris.HCl buffer pH 8.3 at 37° C. with Gly-Pro-4-Me-2-naphtylamine.HCl as substrate. One activity unit is defined as the amount of enzyme which catalyzes the conversion of 1 micromole of substrate per minute at 37° C. All experiments were carried out with the same stock solution of DPPIV containing 1.8 units/ml. The enzyme was diluted (usually 1/200 or 1/500) in reaction buffer immediately before the experiment to a suitable concentration so as not to consume more that 10% of the substrate during the incubation period.
The remaining activity was determined by adding 5 microliter of a 1 mM solution of Gly-Pro-4-Me-2-naphtylamine.HCl. The reaction mixture containing enzyme, substrate and inhibitor was incubated for 20 min at 37° C. The reaction was stopped by addition of 0.5 ml 100 mM citrate pH 4.0. The fluorescence of the sample was measured within 2 h after quenching. The measurements were done in duplicate and corrected for background fluorescence using a blanc with exactly the same composition except that the citrate solution was added before the substrate.

[2] = Functional stability of DPPIV inhibitors in the reaction medium (buffer); type: physicochemical; conditions: 50 mM TRIS buffer pH 8.3, 37° C.
Description: (§2) To determine the functional stability of the inhibitors in the reaction medium, a 10 mM stock solution in DMSO was diluted 50-fold in 50 mM TRIS buffer pH 8.3 and incubated at 37° C. To determine the functional stability in plasma, a 50 mM stock solution in DMSO was diluted 50-fold in fresh or freshly frozen citrated plasma from a healthy donor and incubated at 37° C. At specific time intervals an aliquot was withdrawn, added to an equal volume of DPPIV diluted in buffer or to an equal volume of plasma and the kinetics of inactivation were determined as described under b). The reduction in observed pseudo-first order rate constant is a measure for the amount of functional inhibitor lost during the incubation and allowed to estimate the half-life of the inhibitors in buffer and plasma. The following table lists the results.

[3] = Functional stability of DPPIV inhibitors in human citrated plasma; type: in vitro ADME; conditions: 37° C.
Description: as §2

DPPIV [4] = biological target: T1, DPPIV; type: biochemical; conditions: inhibitor 0.1 or 0.5 mM, 37° C.; k+ = kobs/[I]o
Description: as §1
The kinetics of inactivation were measured by adding an appropriate concentration of inhibitor (0.1 or 0.5 mM) to 0.5 ml of enzyme in reaction buffer at 37° C. and determining the activity at various time points after mixing. To achieve this, 25 microliter samples were withdrawn and diluted […] in 2 mM Gly-Pro-4-Me-2-naphthylamine.HCl. The reaction was quenched with citrate after 10 to 15 min and the fluorescence was determined. The dilution in an excess of substrate reduced the velocity of inhibitor binding by a factor of 20. The decrease in fluorescence with time was fitted with the equation of a monoexponential decay yielding the pseudo-first order rate constant for binding (kobs) in the exponent. The second order rate constant (k+) was calculated as follows: k+ =kobs /[I]o where [I]o is the concentration of inhibitor in the incubation mixture.

DPPIV [5] = biological target: T1, DPPIV; test: Stability of the inhibitor-DPPIV adduct; type: biochemical; conditions: DPPIV incubated with 0.5 mM inhibitor 1 hour, excess removed by gel filtration
Description: The phosphorylated enzyme is expected to hydrolyze slowly by action of solvent or nucleophilic groups on the enzyme.
The stability of the adduct was determined as follows. […] Excess inhibitor was removed by gel filtration on a PD 10 column (Pharmacia Biotech, Uppsala, Sweden) previously equilibrated with 50 mM Tris.HCl buffer, pH 8.3.

[6] = biological target: T2, purified prolyl oligopeptidase (Homo sapiens, UniProt P48147); test: biochemical
T2 construct: from tissue; host or cells: human blood cells: platelets or mononuclear cells, not specified
T2 sequence (P48147 1-710): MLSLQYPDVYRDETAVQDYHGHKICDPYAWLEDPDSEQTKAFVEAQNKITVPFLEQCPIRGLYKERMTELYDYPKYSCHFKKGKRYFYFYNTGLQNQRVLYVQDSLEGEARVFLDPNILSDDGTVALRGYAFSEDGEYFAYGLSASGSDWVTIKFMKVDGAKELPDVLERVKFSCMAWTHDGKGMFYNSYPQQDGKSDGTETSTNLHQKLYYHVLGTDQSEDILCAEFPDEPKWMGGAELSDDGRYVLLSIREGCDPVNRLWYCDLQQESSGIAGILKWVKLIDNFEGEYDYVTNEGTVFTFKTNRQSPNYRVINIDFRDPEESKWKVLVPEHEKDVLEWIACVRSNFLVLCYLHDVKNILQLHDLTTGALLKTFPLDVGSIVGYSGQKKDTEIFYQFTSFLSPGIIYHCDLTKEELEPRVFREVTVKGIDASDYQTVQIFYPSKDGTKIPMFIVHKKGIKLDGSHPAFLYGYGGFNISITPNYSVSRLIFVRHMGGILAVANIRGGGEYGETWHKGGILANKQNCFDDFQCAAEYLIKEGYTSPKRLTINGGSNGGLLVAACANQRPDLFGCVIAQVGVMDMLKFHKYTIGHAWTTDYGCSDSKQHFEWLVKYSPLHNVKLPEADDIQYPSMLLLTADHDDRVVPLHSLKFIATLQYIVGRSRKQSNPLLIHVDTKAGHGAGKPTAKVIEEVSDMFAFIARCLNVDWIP
Description: (§3) The remaining activity was determined by adding 5 μl substrate (Z-Gly-Pro-AMC, 5.6 mM) and measurement of the fluorescence at λex 370 nm, λem 440 nm after a further 20 min incubation at 37° C. The inhibitors were dissolved in methanol and control experiments were performed to correct for the presence of the solvents used. The IC50 value was derived from a plot, joining the residual activity and the dosis of the respective compounds (at least eight concentrations tested). The Ki values were derived from a direct linear plot (Dixon-plot). The measurements were performed in triplicate and only those lines having a correlation coefficient of at least 0.95 were used for determination of the Ki value.
Several peptides (cfr. table) were incubated with purified prolyl oligopeptidase. The compounds were dissolved in H2 O. The IC50 value was determined as previously described apart from the preincubation which was deleted. […]

[7] = biological target: T3, purified human platelet prolyl oligopeptidase (Homo sapiens, UniProt P48147); test: In vitro inhibition of PEP; type: biochemical; conditions: for IC50: 20 min preincubation at 37° C., substrate Z-Gly-Pro-AMC; for Ki: Dixon-plot
T3 construct: purified human platelet prolyl oligopeptidase; from tissue; host or cells: human thrombocytes (platelets)
T3 sequence (P48147 1-710): T2 sequence (P48147 1-710)
Description: as §3

[8] = 1 hour preincubation at room temperature, substrate Gly-Pro-4-Me-2-naphtylamine.HCl, Tris.HCl pH 8.3, 37° C., inhibitory diastereoisomer unless marked *, read-out: IC50
[9] = peptides dissolved in H2O, no preincubation, read-out: IC50

T1 sequence (P27487 whole entry): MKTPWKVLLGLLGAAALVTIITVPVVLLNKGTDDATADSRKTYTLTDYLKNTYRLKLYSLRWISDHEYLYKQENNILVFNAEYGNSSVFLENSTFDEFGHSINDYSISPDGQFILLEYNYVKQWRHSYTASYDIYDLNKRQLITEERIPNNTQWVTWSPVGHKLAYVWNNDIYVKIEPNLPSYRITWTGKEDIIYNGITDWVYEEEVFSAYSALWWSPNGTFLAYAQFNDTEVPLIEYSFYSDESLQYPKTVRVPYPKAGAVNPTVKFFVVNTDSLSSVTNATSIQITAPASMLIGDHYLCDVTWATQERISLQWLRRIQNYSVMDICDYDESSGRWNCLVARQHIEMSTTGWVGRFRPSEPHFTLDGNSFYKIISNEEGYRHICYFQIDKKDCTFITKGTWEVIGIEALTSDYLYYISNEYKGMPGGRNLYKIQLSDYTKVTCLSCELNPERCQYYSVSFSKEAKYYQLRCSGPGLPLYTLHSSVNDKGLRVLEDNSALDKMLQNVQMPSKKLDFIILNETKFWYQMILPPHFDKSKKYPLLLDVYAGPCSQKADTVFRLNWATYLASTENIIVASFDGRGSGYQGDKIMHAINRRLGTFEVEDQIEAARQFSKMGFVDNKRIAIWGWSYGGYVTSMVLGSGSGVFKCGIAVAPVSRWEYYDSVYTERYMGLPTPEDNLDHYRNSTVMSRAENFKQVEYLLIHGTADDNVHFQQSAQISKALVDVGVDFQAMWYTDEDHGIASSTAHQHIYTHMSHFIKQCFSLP

Q: With CC[C@H](C)[C@H](N)C(=O)N1CCC(F)C1.O=C(O)C(F)(F)F (mixture of isomers) [Ile-3-Fluoro-pyrrolidine, 1-(L-Isoleucyl)-3(R,S)-fluoropyrrolidine trifluoroacetate] as the compound, how does the “inhibitory activity on DPPIV (in words)” value (DPPIV [1]) read?
A: particularly active inhibitor

Q: What does the source list for Cl.Cl.N=C(N)NCCC[C@H](N)C(=O)N1CCCC1P(=O)(Oc1ccccc1)Oc1ccccc1 (stereo partly drawn) [(S)-Arg-(S,R)-Pro^P (OPh)2, Diphenyl (S,R)-1-[(S)-arginyl]pyrrolidine-2-phosphonate dihydrochloride]?
A: t1/2 in buffer [2]: 2.6 ± 0.3 h; t1/2 in plasma [3]: 1.9 ± 0.2 h

Q: For CC[C@H](C)[C@H](N)C(=O)N1CCC[C@H]1P(=O)(Oc1ccccc1)Oc1ccccc1.Cl [(S)-Ile-(R)-Pro^P (OPh)2, Diphenyl (R)-1-[(S)-isoleucinyl]pyrrolidine-2-phosphonate hydochloride], which t1/2 in buffer [2] is on record?
A: 10 ± 5 h

Q: What about the t1/2 in plasma [3] of the same compound?
A: 1.4 ± 0.9 h

Q: For Cl.N[C@@H](Cc1ccccc1)C(=O)N1CCC[C@@H]1P(=O)(Oc1ccccc1)Oc1ccccc1 [AB22, Diphenyl (S)-1-[(S)-phenaylalyl]pyrrolidine-2-phosphonate hydrochloride], which “inhibitory activity on DPPIV (in words)” value (DPPIV [1]) is on record?
A: inactive

Q: With C[C@H](N)C(=O)N1CCCC1P(=O)(Oc1ccccc1)Oc1ccccc1.Cl (stereo partly drawn) [Ala-Pro-(OPh)2, Diphenyl (S,R)-1-[(S)-alanyl]pyrrolidine-2-phosphonate hydrochloride] as the compound, how does the IC50 (DPPIV [1]; [8]) read?
A: 2000 µM

Q: And the “K+ (second order rate constant)” value (DPPIV [4])?
A: 0.7 M⁻¹ s⁻¹

Q: What about the “stability of the adduct at room temperature” value (shortened to “stability of the adduct”) (DPPIV [5]) of the same compound?
A: > 4 weeks

Q: Which IC50 [6, 9] does the source give for CC[C@H](C)[C@H](NC(=O)[C@H](Cc1ccc(O)cc1)NC(=O)[C@@H](NC(=O)[C@H](CCCNC(=N)N)NC(=O)[C@@H](N)CC(=O)O)C(C)C)C(=O)N[C@@H](Cc1c[nH]cn1)C(=O)N1CCC[C@H]1C(=O)O [Angiotensin (1-7)] here?
A: 750 µM

Q: Which IC50 [6, 9] does the source give for CC[C@H](C)[C@H](NC(=O)[C@H](Cc1ccc(O)cc1)NC(=O)[C@@H](NC(=O)[C@H](CCCNC(=N)N)NC(=O)[C@@H](N)CC(=O)O)C(C)C)C(=O)N[C@@H](Cc1cnc[nH]1)C(=O)N1CCC[C@H]1C(=O)N[C@@H](Cc1ccccc1)C(=O)O [Angiotensin II] here?
A: 25 µM

Q: With N[C@@H](CC1CCCCC1)C(=O)N1CCC[C@H]1P(=O)(Oc1ccccc1)Oc1ccccc1 [Cyclohexylalanine-Pro^P -(OPh)2, Diphenyl (R)-1-[(S)-cyclohexylalanyl]pyrrolidine-2-phosphonate hydrochloride] as the compound, how does the t1/2 in buffer [2] read?
A: 4.5 ± 0.8 h

Q: What about the t1/2 in plasma [3] of the same compound?
A: 0.3 ± 0.1 h

Q: Which IC50 (DPPIV [1]; [8]) does the source give for CC[C@H](C)[C@H](N)C(=O)N1CCCC1P(=O)(Oc1ccccc1)Oc1ccccc1.Cl (stereo partly drawn) [Ile-Pro-^P -(OPh)2, Diphenyl (S,R)-1-[(S)-isoleucinyl]pyrrolidine-2-phosphonate hydochloride] here?
A: 350 µM

Q: What about the “K+ (second order rate constant)” value (DPPIV [4]) of the same compound?
A: 2.3 M⁻¹ s⁻¹

Q: What about the “stability of the adduct” value (DPPIV [5]) of the same compound?
A: > 3 weeks

Q: With CC(C)(C)Oc1ccc(C[C@H](N)C(=O)N2CCCC2P(=O)(Oc2ccccc2)Oc2ccccc2)cc1 (stereo partly drawn) [O-tbutyl-Tyr-Pro^P -(OPh)2] as the compound, how does the IC50 (DPPIV [1]; [8]) read?
A: 1000 µM

Q: And the “K+ (second order rate constant)” value (DPPIV [4])?
A: 0.5 M⁻¹ s⁻¹

Q: Which IC50 (DPPIV [1]) does the source give for Cl.N[C@@H](Cc1ccccc1)C(=O)N1CCC[C@H]1P(=O)(Oc1ccccc1)Oc1ccccc1 [Phe-Pro^P -(OPh)2, Diphenyl (R)-1-[(S)-phenylalanyl]pyrrolidine-2-phosphonate hydrochloride] here?
A: 70 µM

Q: And the “stability of the adduct” value (DPPIV [5])?
A: > 3 weeks

Q: What about the t1/2 in buffer [2] of the same compound?
A: 6 ± 1 h

Q: And the t1/2 in plasma [3]?
A: 0.7 ± 0.1 h

Q: Which IC50 [6] does the source give for CSCC[C@H](NC(=O)[C@H](CC(C)C)NC(=O)CNC(=O)[C@H](Cc1ccccc1)NC(=O)[C@H](Cc1ccccc1)NC(=O)[C@H](CCC(N)=O)NC(=O)[C@H](CCC(N)=O)NC(=O)[C@@H]1CCCN1C(=O)[C@H](CCCCN)NC(=O)[C@@H]1CCCN1C(=O)[C@@H](N)CCCN=C(N)N)C(N)=O [Substance P] here?
A: 163 µM

Q: Which IC50 [7] does the source give for O=C(NC(Cc1ccccc1)C(=O)N1CCC1)OCc1ccccc1 (stereo not drawn) [Z-Phe-azetidine] here?
A: 30 µM

Q: What does the source list for O=C([C@@H]1CCCN1C(=O)OCc1ccccc1)N1CCC(F)C1 (stereo partly drawn) [Z-Pro-3-fluoropyrrolidine, 1-[N-Benzyloxycarbonyl-L-propyl]-3(R,S)-fluoropyrrolidine]?
A: inhibitory activity on PEP (in words) [7]: particularly active inhibitor; IC50 [7]: 0.45 µM; Ki [7]: 0.1 µM

Q: For O=C(C1CCCN1C(=O)OCc1ccccc1)N1CCC1 (stereo not drawn) [Z-Pro-azetidine], which IC50 [7] is on record?
A: 3 µM

Q: And the Ki [7]?
A: 2.5 µM

Q: With O=C(C1CSCN1C(=O)OCc1ccccc1)N1CCC1 (stereo not drawn) [Z-thiopro-azetidine] as the compound, how does the IC50 [7] read?
A: 1.8 µM

Q: And the Ki [7]?
A: 5 µM

Q: For Cl.N[C@@H](Cc1ccc(F)cc1)C(=O)N1CCC[C@H]1P(=O)(Oc1ccccc1)Oc1ccccc1 [pF-Phe-Pro^P -(OPh)2, Diphenyl (R)-1-[(S)-p-fluorophenylalanyl]pyrrolidine-2-phosphonate hydrochloride], which IC50 (DPPIV [1]) is on record?
A: 100 µM

Q: What about the “stability of the adduct” value (DPPIV [5]) of the same compound?
A: > 4 weeks

Q: And the t1/2 in buffer [2]?
A: 8.9 ± 0.1 h

Q: What about the t1/2 in plasma [3] of the same compound?
A: 0.7 ± 0.1 h

Q: Which IC50 [6] does the source give for RPPGFSPFR [Bradykinin] here?
A: 7 µM
